Tested on: 941728-121-R-J1-PDC complex spheroid viability
Test: Anticancer human tumor 941728-121-R-J1-PDC patient-derived lung adenocarcinoma cell line growth inhibition [RAS]
Settings: for IC50: curve of first compound; for viability, T/C: stronger effect = lower value
How it was run: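 Tumour cells grown as complex spheroids with HUVEC endothelial cells and mesenchymal stem cells, treated with RAS pathway inhibitor combinations. Each agent spans half-log steps from near clinical Cmax, or 10 microM where Cmax is unknown.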
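Also: spheroids exposed to compounds for 7 days before readout.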
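For viability, T/C in this document: 100% = DMSO vehicle control viability.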

## CCC(CC)c1cc(NC2CCC(N)C2)n2nccc2n1 (configuration not stated) + C=CC(=O)N1CCN(c2nc(OCC3CCCN3C)nc3c(F)c(-c4nc(N)cc(C)c4C(F)(F)F)c(Cl)cc23)C(C)C1
Second compound 0.00316 µM
  IC50: < 0.0316 µM
Second compound 0.01 µM
  IC50: < 0.0316 µM
Second compound 0.0316 µM
  IC50: < 0.0316 µM
Second compound 0.1 µM
  IC50: < 0.0316 µM
Second compound 0.316 µM
  IC50: < 0.0316 µM
Second compound 1 µM
  IC50: < 0.0316 µM
Second compound 0.00316 µM, first compound 0.0316 µM
  viability, T/C: 19.6%
Second compound 0.00316 µM, first compound 0.1 µM
  viability, T/C: 18.1%
Second compound 0.00316 µM, first compound 0.316 µM
  viability, T/C: 20.3%
Second compound 0.00316 µM, first compound 1 µM
  viability, T/C: 27.2%
Second compound 0.00316 µM, first compound 3.16 µM
  viability, T/C: 13.7%
Second compound 0.00316 µM, first compound 10 µM
  viability, T/C: 29.1%
Second compound 0.01 µM, first compound 0.0316 µM
  viability, T/C: 20.1%
Second compound 0.01 µM, first compound 0.1 µM
  viability, T/C: 19.9%
Second compound 0.01 µM, first compound 0.316 µM
  viability, T/C: 21.8%
Second compound 0.01 µM, first compound 1 µM
  viability, T/C: 28.4%
Second compound 0.01 µM, first compound 3.16 µM
  viability, T/C: 13.3%
Second compound 0.01 µM, first compound 10 µM
  viability, T/C: 25%
Second compound 0.0316 µM, first compound 0.0316 µM
  viability, T/C: 20%
Second compound 0.0316 µM, first compound 0.1 µM
  viability, T/C: 24.5%
Second compound 0.0316 µM, first compound 0.316 µM
  viability, T/C: 23.5%
Second compound 0.0316 µM, first compound 1 µM
  viability, T/C: 27.3%
Second compound 0.0316 µM, first compound 3.16 µM
  viability, T/C: 13.7%
Second compound 0.0316 µM, first compound 10 µM
  viability, T/C: 25.9%
Second compound 0.1 µM, first compound 0.0316 µM
  viability, T/C: 19.7%
Second compound 0.1 µM, first compound 0.1 µM
  viability, T/C: 18.3%
Second compound 0.1 µM, first compound 0.316 µM
  viability, T/C: 23.4%
Second compound 0.1 µM, first compound 1 µM
  viability, T/C: 27.3%
Second compound 0.1 µM, first compound 3.16 µM
  viability, T/C: 16.6%
Second compound 0.1 µM, first compound 10 µM
  viability, T/C: 25.9%
Second compound 0.316 µM, first compound 0.0316 µM
  viability, T/C: 19.1%
Second compound 0.316 µM, first compound 0.1 µM
  viability, T/C: 21.6%
Second compound 0.316 µM, first compound 0.316 µM
  viability, T/C: 21.5%
Second compound 0.316 µM, first compound 1 µM
  viability, T/C: 26%
Second compound 0.316 µM, first compound 3.16 µM
  viability, T/C: 14.9%
Second compound 0.316 µM, first compound 10 µM
  viability, T/C: 26.1%
Second compound 1 µM, first compound 0.0316 µM
  viability, T/C: 20.6%
Second compound 1 µM, first compound 0.1 µM
  viability, T/C: 21.2%
Second compound 1 µM, first compound 0.316 µM
  viability, T/C: 22.6%
Second compound 1 µM, first compound 1 µM
  viability, T/C: 30.2%
Second compound 1 µM, first compound 3.16 µM
  viability, T/C: 16.8%
Second compound 1 µM, first compound 10 µM
  viability, T/C: 32.5%
